Measured values: ChEMBL document CHEMBL1201862, “PubChem BioAssay data set” (2004)
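Compound exposure: 48 hours, 5 concentrations, 96-well plates. Abbreviation: GI50, concentration required for 50% inhibition of growth.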 Calls of active or inactive are those of the source. Cut-off read from the data, not from the text of the source: active = GI50 up to about 1.1 µM and inactive = higher.

Assays:
Experiment in all cases: growth of human tumour cells (NCI), 48 h
HCT-116 = system: HCT-116
OVCAR-3 = system: OVCAR-3
NCI-H460 = system: NCI-H460
T47D = system: T47D
SR = system: SR
SNB-75 = system: SNB-75
SW-620 = system: SW-620
DU-145 = system: DU-145
786-0 = system: 786-0
HL-60 = system: HL-60
A549 = system: A549
IGROV-1 = system: IGROV-1
TK-10 = system: TK-10
MDA-MB-231 = system: MDA-MB-231
CAKI-1 = system: CAKI-1
UACC-257 = system: UACC-257
RPMI-8226 = system: RPMI-8226
SN12C = system: SN12C
HT-29 = system: HT-29
UO-31 = system: UO-31
SK-MEL-2 = system: SK-MEL-2
OVCAR-8 = system: OVCAR-8
ACHN = system: ACHN
Malme-3M = system: Malme-3M
OVCAR-4 = system: OVCAR-4
K562 = system: K562
HOP-62 = system: HOP-62
KM12 = system: KM12
LOX IMVI = system: LOX IMVI
A498 = system: A498
EKVX = system: EKVX
OVCAR-5 = system: OVCAR-5
U-251 = system: U-251
Hs-578T = system: Hs-578T
MOLT-4 = system: MOLT-4
CCRF-CEM = system: CCRF-CEM
SK-OV-3 = system: SK-OV-3
MDA-N = system: MDA-N
UACC-62 = system: UACC-62
BT-549 = system: BT-549
M14 = system: M14
SF-539 = system: SF-539
PC-3 = system: PC-3
SK-MEL-5 = system: SK-MEL-5
NCI-H226 = system: NCI-H226
SNB-19 = system: SNB-19
SF-295 = system: SF-295
SK-MEL-28 = system: SK-MEL-28
MCF7 = system: MCF7
NCI-H522 = system: NCI-H522
NCI-H23 = system: NCI-H23
HOP-92 = system: HOP-92
SF-268 = system: SF-268
COLO 205 = system: COLO 205
HCT-15 = system: HCT-15
MDA-MB-435 = system: MDA-MB-435
NCI/ADR-RES = system: NCI/ADR-RES
HCC 2998 = system: HCC 2998

With `C=C1CC(CN2CCC(=O)NC2=O)(c2ccccc2)OC1=O` (stereo not drawn) the GI50 (HCT-116) was 3.35 µM (inactive), the GI50 (OVCAR-3) was 13 µM (inactive) and the GI50 (NCI-H460) was 19.4 µM (inactive). The GI50 (T47D) was 3.13 µM (inactive), the GI50 (SR) was 2.09 µM (inactive) and the GI50 (SNB-75) was 18.1 µM (inactive). The GI50 (SW-620) was 1.94 µM (inactive), the GI50 (DU-145) was 15.9 µM (inactive) and the GI50 (786-0) was 4.47 µM (inactive). The GI50 (HL-60) was 1.62 µM (inactive), the GI50 (A549) was 16.9 µM (inactive) and the GI50 (IGROV-1) was 7.87 µM (inactive). The GI50 (TK-10) was 5.94 µM (inactive), the GI50 (MDA-MB-231) was 15 µM (inactive) and the GI50 (CAKI-1) was 2.75 µM (inactive). The GI50 (UACC-257) was 8.99 µM (inactive), the GI50 (RPMI-8226) was 2.19 µM (inactive) and the GI50 (SN12C) was 17.6 µM (inactive). For the same compound, the GI50 (HT-29) was 7.71 µM (inactive), the GI50 (UO-31) was 18 µM (inactive) and the GI50 (SK-MEL-2) was 12.6 µM (inactive). The GI50 (OVCAR-8) was 16.4 µM (inactive), the GI50 (ACHN) was 9.16 µM (inactive) and the GI50 (Malme-3M) was 3.53 µM (inactive). For the same compound, the GI50 (OVCAR-4) was 1.81 µM (inactive), the GI50 (K562) was 2.39 µM (inactive) and the GI50 (HOP-62) was 21.3 µM (inactive). The GI50 (KM12) was 20.9 µM (inactive), the GI50 (LOX IMVI) was 3.75 µM (inactive) and the GI50 (A498) was 19.2 µM (inactive). For the same compound, the GI50 (EKVX) was 18.8 µM (inactive), the GI50 (OVCAR-5) was 15.1 µM (inactive) and the GI50 (U-251) was 17.7 µM (inactive). The GI50 (Hs-578T) was 16.1 µM (inactive), the GI50 (MOLT-4) was 2.25 µM (inactive) and the GI50 (CCRF-CEM) was 1.84 µM (inactive). For the same compound, the GI50 (SK-OV-3) was 16.5 µM (inactive), the GI50 (MDA-N) was 10.8 µM (inactive) and the GI50 (UACC-62) was 8.55 µM (inactive). The GI50 (BT-549) was 7.21 µM (inactive), the GI50 (M14) was 3.08 µM (inactive) and the GI50 (SF-539) was 13.7 µM (inactive). For the same compound, the GI50 (PC-3) was 16.1 µM (inactive), the GI50 (SK-MEL-5) was 12.4 µM (inactive) and the GI50 (NCI-H226) was 15.6 µM (inactive). For the same compound, the GI50 (SNB-19) was > 41.4 µM (inactive), the GI50 (SF-295) was 20.7 µM (inactive) and the GI50 (SK-MEL-28) was 13.4 µM (inactive). For the same compound, the GI50 (MCF7) was 1.64 µM (inactive), the GI50 (NCI-H522) was 0.859 µM (active) and the GI50 (NCI-H23) was 7.18 µM (inactive). The GI50 (HOP-92) was 1.45 µM (inactive), the GI50 (SF-268) was 23.6 µM (inactive) and the GI50 (COLO 205) was 2.36 µM (inactive). For the same compound, the GI50 (HCT-15) was 4.98 µM, the GI50 (MDA-MB-435) was 8.89 µM (inactive) and the GI50 (NCI/ADR-RES) was 11.6 µM (inactive). The GI50 (HCC 2998) was 15 µM (inactive).
